Measured values published in patent US12617837B2, “Composition for use in treatment of allergic diseases” (UNIVERSITY OF TSUKUBA, priority 2019, dated 2026).

Legend:
Clec10a-Fc = target: T1, Clec10a-Fc (Mus musculus, UniProt P49300); test: Sugar conjugate (glycan) microarray analysis of Clec10a-Fc (Table 7); type: binding; conditions: for Signal value, Clec10a-Fc: glycan microarray probed with Clec10a-Fc; for Signal value, Clec10a-Fc with EDTA: glycan microarray probed with Clec10a-Fc with EDTA
T1 construct: cloning the extracellular region of mouse Clec10a into a pME18S expression vector; made in house; host or cells: HEK293T cells
T1 sequence (P49300 57-304 limits assumed): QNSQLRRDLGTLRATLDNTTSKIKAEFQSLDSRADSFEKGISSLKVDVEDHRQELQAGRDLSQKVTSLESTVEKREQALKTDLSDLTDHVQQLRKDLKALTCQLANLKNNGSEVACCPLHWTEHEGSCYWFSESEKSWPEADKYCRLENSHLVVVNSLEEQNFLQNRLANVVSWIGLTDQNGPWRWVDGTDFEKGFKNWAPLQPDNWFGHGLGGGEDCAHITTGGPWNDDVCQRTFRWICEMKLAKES
Procedure: A sugar conjugate microarray containing 98 sugar conjugates (Table 3) was prepared according to a known method using a non-contact microarray printing robot (MicroSys 4000; Genomic Solutions).

human IgG1 = test: Glycan microarray probed with human IgG1 (control of Table 7); type: binding

| Signal value, Clec10a-Fc (Clec10a-Fc) | Signal value, Clec10a-Fc with EDTA (Clec10a-Fc) | SMILES | Signal value, human IgG1 (human IgG1) |
| --- | --- | --- | --- |
| 0 | 0 | C[C@@H]1O[C@@H](O[C@@H]2[C@@H](O)[C@@H](O)[C@@H](CO)O[C@H]2O)[C@@H](O)[C@H](O)[C@@H]1O [Fucα2Gal] | 0 |
| 0 | 0 | CC(=O)N[C@@H]1[C@@H](O[C@@H]2O[C@@H](C)[C@@H](O)[C@@H](O)[C@@H]2O)[C@H](O)[C@@H](CO)O[C@H]1O [Fucα3GlcNAc] | 0 |
| 0 | 0 | CC(=O)N[C@@H]1[C@@H](O)[C@H](O[C@@H]2O[C@@H](C)[C@@H](O)[C@@H](O)[C@@H]2O)[C@@H](CO)O[C@H]1O [Fucα4GlcNAc] | 0 |
| 3 | 0 | OC[C@H]1O[C@H](O[C@H]2C(O)O[C@H](CO)[C@H](O)[C@@H]2O)[C@H](O)[C@@H](O)[C@H]1O (stereo partly drawn) [Galα1-2Gal] | 0 |
| 144 | 0 | OC[C@H]1O[C@H](O[C@@H]2[C@@H](O)[C@H](O)O[C@H](CO)[C@@H]2O)[C@H](O)[C@@H](O)[C@H]1O [Galα1-3Gal] | 0 |
| 0 | 0 | CC(=O)N[C@H]1[C@H](O[C@@H]2[C@H](O)[C@@H](O)[C@H](O[C@H]3[C@H](O)[C@@H](O)[C@H](O)O[C@@H]3CO)O[C@@H]2CO)O[C@H](CO)[C@H](O)[C@@H]1O [Gα2] | 0 |
| 1 | 0 | CC(=O)N[C@@H]1[C@@H](O[C@@H]2O[C@H](CO)[C@H](O)[C@H](O)[C@H]2O[C@@H]2O[C@@H](C)[C@@H](O)[C@@H](O)[C@@H]2O)[C@H](O)[C@@H](CO)O[C@H]1O [H type1] | 0 |
| 0 | 0 | CC(=O)N[C@@H]1[C@@H](O)[C@H](O[C@@H]2O[C@H](CO)[C@H](O)[C@H](O)[C@H]2O[C@@H]2O[C@@H](C)[C@@H](O)[C@@H](O)[C@@H]2O)[C@@H](CO)O[C@H]1O [H type2] | 0 |
| 0 | 0 | CC(=O)N[C@@H]1[C@@H](O)[C@H](O[C@@H]2O[C@H](CO)[C@H](O)[C@H](O)[C@H]2NC(C)=O)[C@@H](CO)O[C@H]1O [LDN] | 0 |
| 7 | 0 | CC(=O)N[C@@H]1[C@@H](O)[C@H](O[C@@H]2O[C@H](CO)[C@H](O)[C@H](O)[C@H]2O)[C@@H](CO)O[C@H]1O [LN] | 0 |
| 4850 | 0 | OC[C@H]1O[C@@H](O[C@H]2[C@H](O)[C@@H](O)[C@H](O)O[C@@H]2CO)[C@H](O)[C@@H](O)[C@H]1O [Lac] | 0 |
| 0 | 0 | CC(=O)N[C@@H]1[C@@H](O[C@@H]2O[C@H](CO)[C@H](O)[C@H](O)[C@H]2O[C@@H]2O[C@@H](C)[C@@H](O)[C@@H](O)[C@@H]2O)[C@H](O[C@@H]2O[C@@H](C)[C@@H](O)[C@@H](O)[C@@H]2O)[C@@H](CO)O[C@H]1O [Leb] | 0 |
| 2414 | 0 | CC(=O)N[C@@H]1[C@@H](O[C@@H]2O[C@H](CO)[C@H](O)[C@H](O)[C@H]2O)[C@H](O)[C@@H](CO)O[C@H]1O [Lec] | 0 |
| 0 | 1 | OC[C@H]1O[C@H](O[C@H]2[C@H](O)[C@@H](O)[C@H](O)O[C@@H]2CO)[C@H](O)[C@@H](O)[C@@H]1O [Maltose] | 0 |
| 45 | 0 | OC[C@H]1O[C@H](OCC2O[C@@H](O)[C@H](O)[C@@H](O)[C@@H]2O)[C@H](O)[C@@H](O)[C@H]1O (stereo partly drawn) [Melibiose] | 0 |
| 0 | 0 | CC(=O)N[C@H]1[C@H]([C@H](O)[C@H](O)CO)O[C@@](O)(C(=O)O)C[C@@H]1O [Ne̊u5Ac] | 0 |
| 0 | 0 | O=C(CO)N[C@H]1[C@H]([C@H](O)[C@H](O)CO)O[C@@](O)(C(=O)O)C[C@@H]1O [Ne̊u5Gc] | 0 |
| 19 | 3 | CC(=O)N[C@H]1[C@H]([C@H](O)[C@H](O)CO)O[C@@](O[C@H](CO)[C@@H](O)[C@@H]2O[C@@](O[C@H](CO)[C@@H](O)[C@@H]3O[C@@](O)(C(=O)O)C[C@H](O)[C@H]3NC(C)=O)(C(=O)O)C[C@H](O)[C@H]2NC(C)=O)(C(=O)O)C[C@@H]1O [Sia3] | 0 |

| Signal value, Clec10a-Fc (Clec10a-Fc) | Signal value, Clec10a-Fc with EDTA (Clec10a-Fc) | SMILES | Signal value, human IgG1 (human IgG1) |
| --- | --- | --- | --- |
| 0 | 0 | CC(=O)N[C@@H]1[C@@H](O[C@@H]2O[C@H](CO)[C@H](O)[C@H](O)[C@H]2O)[C@@H](O)[C@@H](CO[C@]2(C(=O)O)C[C@H](O)[C@@H](NC(C)=O)[C@H]([C@H](O)[C@H](O)CO)O2)O[C@@H]1O [Siaα2-6Core 1] | 0 |
| 0 | 0 | CC(=O)N[C@H]1[C@H]([C@H](O)[C@H](O)CO)O[C@@](O[C@H](CO)[C@@H](O)[C@@H]2O[C@@](O)(C(=O)O)C[C@H](O)[C@H]2NC(C)=O)(C(=O)O)C[C@@H]1O [Siα2] | 0 |
| 2504 | 0 | CC(=O)N[C@@H]1[C@@H](O[C@@H]2O[C@H](CO)[C@H](O)[C@H](O)[C@H]2O)[C@@H](O)[C@@H](CO)O[C@@H]1O [T (Core1)] | 0 |
| 3 | 0 | O=S(=O)(O)O[C@@H]1[C@@H](O)[C@H](O)O[C@H](CO)[C@@H]1O [[3S] βGal] | 0 |
| 0 | 0 | CC(=O)N[C@@H]1[C@@H](O[C@@H]2O[C@H](CO)[C@H](O)[C@H](OS(=O)(=O)O)[C@H]2O)[C@H](O[C@@H]2O[C@@H](C)[C@@H](O)[C@@H](O)[C@@H]2O)[C@@H](CO)O[C@H]1O [[3S]Lea] | 0 |
| 0 | 0 | CC(=O)N[C@@H]1[C@@H](O)[C@H](O[C@@H]2O[C@H](CO)[C@H](O)[C@H](O[C@]3(C(=O)O)C[C@H](O)[C@@H](NC(C)=O)[C@H]([C@H](O)[C@H](O)CO)O3)[C@H]2O)[C@@H](CO)O[C@H]1O [[3′S]LN] | 0 |
| 0 | 0 | CC(=O)N[C@@H]1[C@@H](O[C@@H]2O[C@H](CO)[C@H](O)[C@H](OS(=O)(=O)O)[C@H]2O)[C@H](O)[C@@H](CO)O[C@H]1O [[3′S]Lec] | 0 |
| 0 | 0 | O=P(O)(O)OC[C@H]1O[C@H](O)[C@@H](O)[C@@H](O)[C@@H]1O [[6P]Man] | 0 |
| 0 | 0 | CC(=O)N[C@@H]1[C@@H](O)[C@H](O)[C@@H](COS(=O)(=O)O)O[C@H]1O [[6S]BGlcNAc] | 318 |
| 0 | 0 | CC(=O)N[C@@H]1[C@@H](O)[C@H](O[C@@H]2O[C@H](CO)[C@H](O)[C@H](O)[C@H]2O)[C@@H](COS(=O)(=O)O)O[C@H]1O [[6S]LN] | 0 |
| 0 | 0 | CC(=O)N[C@@H]1[C@@H](O)[C@H](O[C@@H]2O[C@H](COS(=O)(=O)O)[C@H](O)[C@H](O)[C@H]2O)[C@@H](CO)O[C@H]1O [[6′S]LN] | 0 |
| 65 | 0 | CC(=O)N[C@@H]1[C@@H](O[C@@H]2O[C@H](CO)[C@H](O)[C@H](O)[C@H]2NC(C)=O)[C@@H](O)[C@@H](CO)O[C@H]1O [di-GalNAcβ] | 0 |
| 0 | 0 | CC(=O)N[C@@H]1[C@@H](O[C@@H]2O[C@H](CO)[C@H](O)[C@H](O[C@]3(C(=O)O)C[C@H](O)[C@@H](NC(C)=O)[C@H]([C@H](O)[C@H](O)CO)O3)[C@H]2O)[C@H](O[C@@H]2O[C@@H](C)[C@@H](O)[C@@H](O)[C@@H]2O)[C@@H](CO)O[C@H]1O [sLea] | 0 |
| 1 | 0 | CC(=O)N[C@@H]1[C@@H](O[C@@H]2O[C@@H](C)[C@@H](O)[C@@H](O)[C@@H]2O)[C@H](O[C@@H]2O[C@H](CO)[C@H](O)[C@H](O[C@]3(C(=O)O)C[C@H](O)[C@@H](NC(C)=O)[C@H]([C@H](O)[C@H](O)CO)O3)[C@H]2O)[C@@H](CO)O[C@H]1O [sLex] | 0 |
| 0 | 0 | OC[C@H]1O[C@H](O)[C@@H](O)[C@@H](O)[C@@H]1O [αMan] | 0 |
| 6 | 0 | CC(=O)N[C@@H]1[C@@H](O)[C@@H](O)[C@@H](CO)O[C@H]1O [βGalNAc] | 0 |
| 1867 | 0 | OC[C@H]1O[C@@H](O)[C@H](O)[C@@H](O)[C@H]1O [βGal] | 0 |
